Paper PMC6812009, “Covalent Aurora A regulation by the metabolic integrator coenzyme A” (Redox Biology, 2019)

How the values were obtained:
Assay in all cases: Kinase profiling screen (radioactive filter-binding assay)
Assay type in all cases: biochemical
CK1δ = CK1δ (Homo sapiens, UniProt P48730); conditions: 100 μM compound, 20 μM ATP; read-out: Kinase activity, % of activity in the absence of inhibitor
Experimental: (§1) Profiling of 117 protein kinases with CoA, dpCoA and ADP was carried out at the International Centre for Protein Kinase Profiling at the University of Dundee. Each compound was tested in vitro, in duplicate, at 100 μM final concentration using recombinant kinases, model substrates and optimal concentrations of ATP. Bacterially expressed full-length His-Aurora A was used to determine the IC50 value for CoA (in the presence or absence of DTT), dpCoA, ADP and desulfo-CoA. The assay was performed in the presence of 5 μM competing ATP. To examine whether the inhibitory effect of CoA on Aurora A is modulated by TPX2, IC50 values for CoA were also generated in the presence and absence of 1 μg TPX2 (residues 1–43) fragment.

CK2α = CK2α (Homo sapiens, UniProt P68400); conditions: 100 μM compound, 5 μM ATP; read-out: Kinase activity, % of activity in the absence of inhibitor
Experimental: as §1

CLK2 = CLK2 (Homo sapiens, UniProt P49760); conditions: 100 μM compound, 5 μM ATP; read-out: Kinase activity, % of activity in the absence of inhibitor
Experimental: as §1

JNK1 = JNK1 (Homo sapiens, UniProt P45983); conditions: 100 μM compound, 20 μM ATP; read-out: Kinase activity, % of activity in the absence of inhibitor
Experimental: as §1

LKB1 = target: T1, LKB1 (Homo sapiens, UniProt Q15831); conditions: 100 μM compound, 20 μM ATP; read-out: Kinase activity, % of activity in the absence of inhibitor
T1 sequence (Q15831 1-433): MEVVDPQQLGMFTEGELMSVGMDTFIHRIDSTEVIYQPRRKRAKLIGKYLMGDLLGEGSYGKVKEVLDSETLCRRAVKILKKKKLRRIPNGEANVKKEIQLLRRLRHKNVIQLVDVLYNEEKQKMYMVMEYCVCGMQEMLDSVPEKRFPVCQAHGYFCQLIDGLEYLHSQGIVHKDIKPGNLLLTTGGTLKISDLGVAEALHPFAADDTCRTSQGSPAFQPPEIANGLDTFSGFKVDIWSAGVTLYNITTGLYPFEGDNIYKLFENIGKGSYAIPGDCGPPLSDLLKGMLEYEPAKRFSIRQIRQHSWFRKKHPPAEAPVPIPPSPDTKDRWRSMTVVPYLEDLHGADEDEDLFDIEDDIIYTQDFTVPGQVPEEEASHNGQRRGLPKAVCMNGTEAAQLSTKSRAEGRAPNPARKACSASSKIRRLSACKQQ
T1 sequence (Q7RTN6 1-431 partner): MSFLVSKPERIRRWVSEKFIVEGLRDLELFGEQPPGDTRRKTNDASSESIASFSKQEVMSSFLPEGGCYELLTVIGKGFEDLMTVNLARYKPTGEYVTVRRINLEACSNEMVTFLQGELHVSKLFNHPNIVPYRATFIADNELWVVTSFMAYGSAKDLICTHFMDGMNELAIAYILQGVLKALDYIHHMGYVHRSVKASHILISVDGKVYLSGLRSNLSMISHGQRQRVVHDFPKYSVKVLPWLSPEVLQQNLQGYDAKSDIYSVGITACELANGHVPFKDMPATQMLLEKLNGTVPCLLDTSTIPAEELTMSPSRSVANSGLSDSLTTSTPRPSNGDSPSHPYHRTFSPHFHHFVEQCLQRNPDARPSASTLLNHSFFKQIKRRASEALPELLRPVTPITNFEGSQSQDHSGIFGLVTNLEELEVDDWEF
T1 sequence (Q9Y376 1-341 partner): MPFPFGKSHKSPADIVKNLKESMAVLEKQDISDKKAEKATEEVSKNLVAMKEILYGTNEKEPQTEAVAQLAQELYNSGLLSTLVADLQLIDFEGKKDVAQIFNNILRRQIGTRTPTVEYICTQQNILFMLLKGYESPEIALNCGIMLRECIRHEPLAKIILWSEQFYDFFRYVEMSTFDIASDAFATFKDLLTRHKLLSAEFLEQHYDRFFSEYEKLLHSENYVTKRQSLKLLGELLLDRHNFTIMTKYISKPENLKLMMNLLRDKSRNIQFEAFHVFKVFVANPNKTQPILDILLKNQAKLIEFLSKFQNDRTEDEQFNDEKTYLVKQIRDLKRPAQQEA
Experimental: as §1

PAK5 = PAK5 (Homo sapiens, UniProt Q9P286); conditions: 100 μM compound, 20 μM ATP; read-out: Kinase activity, % of activity in the absence of inhibitor
Experimental: as §1

PLK1 = PLK1 (Homo sapiens, UniProt P53350); conditions: 100 μM compound, 5 μM ATP; read-out: Kinase activity, % of activity in the absence of inhibitor
Experimental: as §1

RIPK2 = RIPK2 (Homo sapiens, UniProt O43353); conditions: 100 μM compound, 20 μM ATP; read-out: Kinase activity, % of activity in the absence of inhibitor
Experimental: as §1

RSK1 = RSK1 (Homo sapiens, UniProt Q15418); conditions: 100 μM compound, 50 μM ATP; read-out: Kinase activity, % of activity in the absence of inhibitor
Experimental: as §1

SGK1 = target: T2, SGK1 (Homo sapiens, UniProt O00141); conditions: 100 μM compound, 20 μM ATP; read-out: Kinase activity, % of activity in the absence of inhibitor
T2 sequence (O00141 1-431): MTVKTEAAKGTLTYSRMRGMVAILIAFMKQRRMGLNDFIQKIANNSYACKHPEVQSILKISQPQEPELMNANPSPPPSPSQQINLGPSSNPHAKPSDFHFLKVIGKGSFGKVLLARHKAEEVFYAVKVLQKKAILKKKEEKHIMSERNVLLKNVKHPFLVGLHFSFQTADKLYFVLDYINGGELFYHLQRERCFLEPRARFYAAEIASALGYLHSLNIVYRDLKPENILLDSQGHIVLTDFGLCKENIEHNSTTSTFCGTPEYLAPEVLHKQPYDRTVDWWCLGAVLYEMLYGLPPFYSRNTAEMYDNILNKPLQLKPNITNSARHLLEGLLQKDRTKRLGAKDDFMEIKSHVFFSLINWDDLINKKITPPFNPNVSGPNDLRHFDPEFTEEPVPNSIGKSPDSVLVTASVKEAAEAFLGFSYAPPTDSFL
Experimental: as §1

SmMLCK = SmMLCK (Homo sapiens, UniProt Q15746); conditions: 100 μM compound, 20 μM ATP; read-out: Kinase activity, % of activity in the absence of inhibitor
Experimental: as §1

Sequence of PAK5 (Q9P286 whole entry): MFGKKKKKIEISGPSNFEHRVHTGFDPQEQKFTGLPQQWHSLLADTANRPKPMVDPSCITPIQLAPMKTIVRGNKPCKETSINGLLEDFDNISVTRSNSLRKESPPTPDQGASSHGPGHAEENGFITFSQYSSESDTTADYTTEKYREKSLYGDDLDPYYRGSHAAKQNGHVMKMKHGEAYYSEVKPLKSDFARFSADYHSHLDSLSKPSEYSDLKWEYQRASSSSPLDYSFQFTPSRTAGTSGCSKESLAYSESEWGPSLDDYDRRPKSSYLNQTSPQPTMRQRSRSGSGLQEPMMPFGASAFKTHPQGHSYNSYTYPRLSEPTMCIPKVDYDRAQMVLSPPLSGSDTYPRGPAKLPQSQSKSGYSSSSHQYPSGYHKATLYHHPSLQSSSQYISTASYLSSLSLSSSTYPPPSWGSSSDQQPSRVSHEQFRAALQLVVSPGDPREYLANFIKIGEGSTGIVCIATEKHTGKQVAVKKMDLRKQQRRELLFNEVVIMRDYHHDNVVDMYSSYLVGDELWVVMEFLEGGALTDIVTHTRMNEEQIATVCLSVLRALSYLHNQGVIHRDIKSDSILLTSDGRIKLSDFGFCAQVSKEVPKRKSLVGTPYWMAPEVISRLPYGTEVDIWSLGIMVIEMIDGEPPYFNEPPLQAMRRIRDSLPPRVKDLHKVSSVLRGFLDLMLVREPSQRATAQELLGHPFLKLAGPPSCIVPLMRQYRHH
Sequence of RSK1 (Q15418 whole entry): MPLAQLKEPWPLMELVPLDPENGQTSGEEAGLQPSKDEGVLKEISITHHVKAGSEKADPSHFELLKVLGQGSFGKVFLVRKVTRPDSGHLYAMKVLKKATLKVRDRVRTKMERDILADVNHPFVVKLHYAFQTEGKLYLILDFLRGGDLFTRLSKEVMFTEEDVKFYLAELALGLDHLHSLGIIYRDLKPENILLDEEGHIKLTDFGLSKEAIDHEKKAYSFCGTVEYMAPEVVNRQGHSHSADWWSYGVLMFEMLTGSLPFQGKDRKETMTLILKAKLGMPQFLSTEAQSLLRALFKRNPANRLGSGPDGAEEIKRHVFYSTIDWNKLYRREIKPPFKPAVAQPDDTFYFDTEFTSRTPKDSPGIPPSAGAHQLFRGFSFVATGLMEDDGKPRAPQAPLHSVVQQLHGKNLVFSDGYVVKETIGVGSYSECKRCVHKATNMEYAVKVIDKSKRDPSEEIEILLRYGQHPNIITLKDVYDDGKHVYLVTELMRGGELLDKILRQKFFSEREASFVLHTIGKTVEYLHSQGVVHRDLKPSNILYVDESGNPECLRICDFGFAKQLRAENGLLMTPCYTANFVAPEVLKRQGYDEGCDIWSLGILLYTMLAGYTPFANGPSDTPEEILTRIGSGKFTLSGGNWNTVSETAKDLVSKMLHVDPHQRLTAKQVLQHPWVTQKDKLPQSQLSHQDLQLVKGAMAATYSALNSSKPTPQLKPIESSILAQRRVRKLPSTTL
Sequence of SmMLCK (Q15746 923-1914): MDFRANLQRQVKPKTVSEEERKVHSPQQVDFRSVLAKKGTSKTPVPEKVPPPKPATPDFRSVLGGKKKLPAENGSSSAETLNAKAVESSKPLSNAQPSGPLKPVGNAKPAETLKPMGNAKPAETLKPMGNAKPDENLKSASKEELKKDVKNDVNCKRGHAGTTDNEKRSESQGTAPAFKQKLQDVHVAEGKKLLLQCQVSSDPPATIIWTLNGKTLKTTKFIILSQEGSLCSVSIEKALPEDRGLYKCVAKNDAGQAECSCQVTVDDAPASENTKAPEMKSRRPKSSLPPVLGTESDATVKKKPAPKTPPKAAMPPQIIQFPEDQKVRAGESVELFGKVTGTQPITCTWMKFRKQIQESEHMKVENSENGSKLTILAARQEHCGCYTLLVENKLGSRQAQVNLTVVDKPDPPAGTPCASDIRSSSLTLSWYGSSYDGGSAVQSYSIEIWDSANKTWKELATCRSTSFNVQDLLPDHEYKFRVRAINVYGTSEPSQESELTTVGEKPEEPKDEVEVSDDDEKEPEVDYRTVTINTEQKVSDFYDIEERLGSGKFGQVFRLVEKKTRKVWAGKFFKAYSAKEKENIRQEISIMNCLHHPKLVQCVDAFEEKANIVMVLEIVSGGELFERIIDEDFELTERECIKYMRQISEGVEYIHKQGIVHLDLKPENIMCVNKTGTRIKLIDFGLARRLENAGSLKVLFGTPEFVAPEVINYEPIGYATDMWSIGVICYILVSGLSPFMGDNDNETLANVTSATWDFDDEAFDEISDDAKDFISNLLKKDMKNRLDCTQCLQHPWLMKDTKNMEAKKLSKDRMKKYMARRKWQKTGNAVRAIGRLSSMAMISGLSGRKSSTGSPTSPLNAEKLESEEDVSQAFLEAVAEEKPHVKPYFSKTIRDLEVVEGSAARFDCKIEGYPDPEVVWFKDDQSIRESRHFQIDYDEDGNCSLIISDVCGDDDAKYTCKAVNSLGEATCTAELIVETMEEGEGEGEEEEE
Sequence of RIPK2 (O43353 whole entry): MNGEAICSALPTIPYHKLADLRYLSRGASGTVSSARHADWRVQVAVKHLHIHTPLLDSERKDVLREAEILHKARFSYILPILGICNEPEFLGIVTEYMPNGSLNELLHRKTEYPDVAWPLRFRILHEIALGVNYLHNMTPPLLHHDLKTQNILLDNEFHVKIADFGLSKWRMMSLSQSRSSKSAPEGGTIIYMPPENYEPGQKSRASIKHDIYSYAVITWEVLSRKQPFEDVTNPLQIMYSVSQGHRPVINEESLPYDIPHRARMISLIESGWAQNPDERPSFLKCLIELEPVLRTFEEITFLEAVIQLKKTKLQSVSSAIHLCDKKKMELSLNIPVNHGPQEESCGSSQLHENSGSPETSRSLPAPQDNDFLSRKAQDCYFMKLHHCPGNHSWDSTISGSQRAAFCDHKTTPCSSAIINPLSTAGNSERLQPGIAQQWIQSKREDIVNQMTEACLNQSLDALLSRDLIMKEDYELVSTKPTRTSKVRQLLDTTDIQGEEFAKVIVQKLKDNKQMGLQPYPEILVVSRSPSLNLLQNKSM
Sequence of CK1δ (P48730 whole entry, the tested form may be a part): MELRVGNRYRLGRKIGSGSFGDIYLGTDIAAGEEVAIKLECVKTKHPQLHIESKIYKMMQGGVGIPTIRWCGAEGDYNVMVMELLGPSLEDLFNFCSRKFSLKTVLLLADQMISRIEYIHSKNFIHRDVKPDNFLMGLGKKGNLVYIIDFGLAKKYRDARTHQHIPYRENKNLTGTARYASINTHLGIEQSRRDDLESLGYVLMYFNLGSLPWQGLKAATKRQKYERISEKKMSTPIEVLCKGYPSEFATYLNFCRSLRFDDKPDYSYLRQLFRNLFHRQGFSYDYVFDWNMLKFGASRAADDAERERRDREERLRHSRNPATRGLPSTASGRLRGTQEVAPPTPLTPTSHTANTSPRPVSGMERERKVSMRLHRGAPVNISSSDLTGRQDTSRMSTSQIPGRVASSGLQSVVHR
Sequence of PLK1 (P53350 whole entry): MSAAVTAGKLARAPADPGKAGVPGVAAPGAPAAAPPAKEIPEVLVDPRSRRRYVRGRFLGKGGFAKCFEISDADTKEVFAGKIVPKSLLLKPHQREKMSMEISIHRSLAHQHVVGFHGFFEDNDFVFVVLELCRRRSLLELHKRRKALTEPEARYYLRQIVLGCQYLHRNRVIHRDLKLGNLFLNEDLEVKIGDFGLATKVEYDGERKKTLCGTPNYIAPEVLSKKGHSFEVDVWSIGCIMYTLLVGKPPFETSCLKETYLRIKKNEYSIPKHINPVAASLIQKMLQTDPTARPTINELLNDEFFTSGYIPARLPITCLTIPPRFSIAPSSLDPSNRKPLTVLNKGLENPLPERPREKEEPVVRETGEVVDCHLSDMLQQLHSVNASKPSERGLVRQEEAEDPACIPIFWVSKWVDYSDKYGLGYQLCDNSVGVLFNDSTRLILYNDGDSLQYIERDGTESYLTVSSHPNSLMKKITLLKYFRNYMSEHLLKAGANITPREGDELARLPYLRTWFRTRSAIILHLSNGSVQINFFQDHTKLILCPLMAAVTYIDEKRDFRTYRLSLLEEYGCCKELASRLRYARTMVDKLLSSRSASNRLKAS
Sequence of CK2α (P68400 whole entry): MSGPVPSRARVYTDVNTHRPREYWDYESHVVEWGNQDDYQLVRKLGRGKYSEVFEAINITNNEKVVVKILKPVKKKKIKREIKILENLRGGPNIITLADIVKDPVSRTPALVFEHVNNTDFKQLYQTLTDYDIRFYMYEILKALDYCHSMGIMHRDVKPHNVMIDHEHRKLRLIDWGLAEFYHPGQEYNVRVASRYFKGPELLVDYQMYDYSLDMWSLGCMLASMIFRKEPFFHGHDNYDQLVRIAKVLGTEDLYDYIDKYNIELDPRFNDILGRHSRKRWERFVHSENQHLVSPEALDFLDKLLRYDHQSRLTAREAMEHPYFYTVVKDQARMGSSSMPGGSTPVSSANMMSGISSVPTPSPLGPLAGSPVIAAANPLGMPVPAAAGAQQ
Sequence of CLK2 (P49760 whole entry): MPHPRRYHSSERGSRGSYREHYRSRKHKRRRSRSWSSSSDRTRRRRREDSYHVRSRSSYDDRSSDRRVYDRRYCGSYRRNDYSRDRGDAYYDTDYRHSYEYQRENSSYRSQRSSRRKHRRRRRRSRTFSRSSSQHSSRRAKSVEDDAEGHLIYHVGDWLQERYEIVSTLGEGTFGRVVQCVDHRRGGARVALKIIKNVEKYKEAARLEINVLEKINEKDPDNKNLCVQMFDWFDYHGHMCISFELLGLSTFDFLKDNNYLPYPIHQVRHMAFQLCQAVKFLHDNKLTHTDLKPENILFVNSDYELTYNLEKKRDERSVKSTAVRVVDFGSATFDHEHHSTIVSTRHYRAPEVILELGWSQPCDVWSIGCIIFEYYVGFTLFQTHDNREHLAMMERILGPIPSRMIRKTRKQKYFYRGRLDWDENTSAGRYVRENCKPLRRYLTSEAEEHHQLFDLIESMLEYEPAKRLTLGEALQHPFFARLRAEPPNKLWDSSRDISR

Row | SMILES | activity at 100 µM (CK1δ) | activity at 100 µM (CK2α) | activity at 100 µM (CLK2) | activity at 100 µM (JNK1) | activity at 100 µM (LKB1) | activity at 100 µM (PAK5) | activity at 100 µM (PLK1) | activity at 100 µM (RIPK2) | activity at 100 µM (RSK1) | activity at 100 µM (SGK1) | activity at 100 µM (SmMLCK)
1 | CC(C)(COP(=O)(O)OP(=O)(O)OC[C@H]1O[C@@H](n2cnc3c(N)ncnc32)[C@H](O)[C@@H]1OP(=O)(O)O)[C@@H](O)C(=O)NCCC(=O)NCCS [CoA, Coenzyme A] | 80.8% | 80.1% | 109% | 85.4% | 103% | 70.6% | 101% | 131% | 97.2% | 103% | 92.1%
2 | Nc1ncnc2c1ncn2C1OC(COP(=O)(O)OP(=O)(O)O)C(O)C1O (stereo not drawn) [ADP] | 57.6% | 5.4% | 33.9% | 53.9% | 71% | 79.5% | 52.2% | 46% | 58.5% | 38.7% | 73%
3 | CC(C)(COP(=O)(O)OP(=O)(O)OCC1OC(n2cnc3c(N)ncnc32)C(O)C1O)C(O)C(=O)NCCC(=O)NCCS (stereo not drawn) [dpCoA, dephospho-CoA] | 80.4% | 39.8% | 80.1% | 82.4% | 81.1% | 86% | 100% | 88.4% | 98.9% | 74.3% | 91.3%
